Data set [1] deals with T1, Oxytocin receptor (Homo sapiens, UniProt P30559).
T1 sequence (P30559 whole entry): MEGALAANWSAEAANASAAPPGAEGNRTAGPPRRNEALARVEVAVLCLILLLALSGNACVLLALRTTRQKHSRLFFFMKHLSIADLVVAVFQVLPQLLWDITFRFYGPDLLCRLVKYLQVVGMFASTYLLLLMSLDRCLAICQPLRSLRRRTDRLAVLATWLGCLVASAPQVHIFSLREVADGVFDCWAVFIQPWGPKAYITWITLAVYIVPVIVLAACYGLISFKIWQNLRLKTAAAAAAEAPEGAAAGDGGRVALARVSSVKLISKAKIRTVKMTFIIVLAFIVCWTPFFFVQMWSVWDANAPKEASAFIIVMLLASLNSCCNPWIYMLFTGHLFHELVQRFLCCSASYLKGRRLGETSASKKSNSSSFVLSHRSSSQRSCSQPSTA
Description: Binding affinity against cloned human oxytocin receptor from human embryonic kidney cells. Format: cell-based.

Data set [2] in a line: Half life period after 3 mg/kg iv administration in rat. Format: ADME, organism-based. Details: dose 3 mg/kg, route intravenous. To be noted: in vivo.
For data set [3], the species on record is Rattus norvegicus. Nature of the data set: Compound was evaluated for its ability to antagonize rat OT-induced uterine contractile response in the vehicle treated group by 50%. In kind it is functional.
For data set [4], the target named is T2, Oxytocin receptor (Rattus norvegicus, UniProt P70536).
T2 sequence (P70536 whole entry): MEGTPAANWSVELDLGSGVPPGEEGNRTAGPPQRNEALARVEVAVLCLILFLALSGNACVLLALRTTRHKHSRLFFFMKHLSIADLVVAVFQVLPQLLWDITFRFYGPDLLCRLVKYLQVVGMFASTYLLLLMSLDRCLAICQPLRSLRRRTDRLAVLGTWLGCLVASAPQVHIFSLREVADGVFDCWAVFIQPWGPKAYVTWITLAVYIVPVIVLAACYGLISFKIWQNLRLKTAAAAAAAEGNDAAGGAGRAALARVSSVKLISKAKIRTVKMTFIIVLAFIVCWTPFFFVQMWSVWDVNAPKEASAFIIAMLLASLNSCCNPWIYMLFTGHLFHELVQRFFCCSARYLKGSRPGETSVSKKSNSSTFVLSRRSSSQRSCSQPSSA
Nature of the data set: Binding affinity against oxytocin receptor (rOTr) in DES pretreated rat uterine.

Data set [5] in a line: Oral bioavailability in rat. In kind it is ADME, organism-based. The following applies: in vivo.
Data set [6] has as its system Rattus norvegicus. Description: Maximum plasma concentration after 20 mg/kg oral administration in rat. In kind it is ADME, organism-based. Details: dose 20 mg/kg, route oral. To be noted: in vivo.
Data set [7] in a line: Half life period after 3 mg/kg iv administration in the rat. In kind it is ADME, organism-based. The arrangement: dose 3 mg/kg, route intravenous. To be noted: in vivo.

The structures appear in SMILES notation. A value given as a limit tells only on which side of the number the result lay.

As a reminder, the Ki is the equilibrium dissociation constant of an inhibitor or competing ligand from its target. `CCC(Oc1ccc(C(=O)N2CCC(N3C(=O)OCc4ccccc43)CC2)c(OC)c1)c1ccccc1` (stereo not given): on Oxytocin receptor [1], the Ki was 58 nM.

As a reminder, the half-life is the time in which the quantity being followed falls by half. A higher half-life goes with slow loss. As for `COc1cc(OC(C)c2ccccc2)ccc1C(=O)N1CCC(N2C(=O)OCc3ccccc32)CC1` (stereo not given), the half-life in data set [2] was below 30 min.

On to `CCOc1ccc(C(=O)N2CCC(N3C(=O)OCc4ccccc43)CC2)c(OC)c1`, for which the Ki at Oxytocin receptor [1] amounted to 15 nM.

As for `COc1cc(OC(C)C)ccc1C(=O)N1CCC(N2C(=O)OCc3ccccc32)CC1`, the Ki at Oxytocin receptor [1] turned out to be 17 nM.

In turn, `COc1cc(OC(C)c2cccnc2)ccc1C(=O)N1CCC(N2C(=O)OCc3ccccc32)CC1` (stereo not given) showed an AD50 in the data set filed under Rattus norvegicus [3] of 1.2 mg/kg.

As to `COc1cc(O[C@H](C)c2cc[n+]([O-])cc2)c(F)cc1C(=O)N1CCC(N2C(=O)OCc3ccccc32)CC1`, the Ki at Oxytocin receptor [1] is 7.34 nM; on Oxytocin receptor [4], 9.9 nM. Also, the AD50 in the data set filed under Rattus norvegicus [3] stood at 0.78 mg/kg.

Usually bioavailability stands for the share of a dose that reaches the circulation, judged against a reference dose that is usually intravenous. Higher therefore signals much systemic uptake. For the compound `COc1cc(OC2CCN(C(C)=O)CC2)ccc1C(=O)N1CCC(N2C(=O)OCc3ccccc32)CC1`, the bioavailability in data set [5] came out at 39%. The Cmax in the data set on Rattus norvegicus [6] turned out to be 3.3 uM equiv. Also, the Ki on Oxytocin receptor [1] was determined as 9.3 nM. This compound displayed a half-life in data set [7] of around 30 min. Also, the AD50 in the data set filed under Rattus norvegicus [3] was determined as 0.55 mg/kg.

As to `COc1ccc(C(=O)N2CCC(N3C(=O)OCc4ccccc43)CC2)c(OC)c1`, the Ki on Oxytocin receptor [1] came to 87 nM; on Oxytocin receptor [4], 120 nM.

Values taken from ChEMBL document CHEMBL1130655, “Nonpeptide oxytocin antagonists: potent, orally bioavailable analogs of L-371,257 containing a 1-R-(pyridyl)ethyl ether terminus” (Bioorg Med Chem Lett, 1998).
